SMILES strings stand for the structures. Values after ≈ are worked out from the molar mass of the structure shown.

This is an account of results in ChEMBL document CHEMBL1136031, “8-Aryl xanthines potent inhibitors of phosphodiesterase 5” (Bioorg Med Chem Lett, 2002).

A short description of data set [1]: Bioavailability. Particulars: rat, in vivo; read-out: BAV. It counts as ADME, organism-based.
Data set [2] is described as follows: Log D value at pH 7.4. The data set is classed as physicochemical. As to conditions: buffer.
Data set [3] is described as follows: Kinetic solubility at pH 6.9, ca. Particulars: buffer. The data set is classed as physicochemical.
Data set [4] in a line: The pharmacokinetic property, Half-life in rat in vivo. The data set is classed as ADME, organism-based.
Data set [5] is described as follows: Kinetic solubility at pH 5.9. The data set is classed as physicochemical. As to conditions: buffer.
Data set [6] can be described thus: Partition coefficient (logP). The data set is classed as physicochemical. Particulars: octanol/water.
A short description of data set [7]: Volume in steady state distribution value was determined. It counts as ADME, organism-based. Particulars: rat, in vivo; read-out: Vss.
The target of another data set is Phosphodiesterase 3 (Homo sapiens, UniProt Q14432+Q13370). Description: Inhibition of human platelet Phosphodiesterase 3.
The next data set addresses Phosphodiesterase 1 (Bos taurus, UniProt Q01061+P14100). The experiment in a line: Inhibition of bovine heart Phosphodiesterase 1 (PDE1). The data set is classed as protein assay.
Data set [8] has as its target cGMP-specific 3',5'-cyclic phosphodiesterase (Homo sapiens, UniProt O76074). The experiment in a line: Inhibitory activity against human platelet Phosphodiesterase 5 (PDE5).
For a further data set, the target named is Phosphodiesterase 6. Description: Inhibitory concentration against bovine retina phosphodiesterase 6 activity. It counts as tissue-based.
Data set [9] in a line: Ratio of IC50 against human platelet PDE5 to that against bovine retina PDE6.
Data set [10] in a line: The pharmacokinetic property, Half-life was determined. The data set is classed as ADME, organism-based. Particulars: rat, in vivo.
Data set [11] is described as follows: In vitro microsome metabolism clearance in rat was determined. It counts as ADME. As to conditions: microsomes.
The nature of data set [12]: Kinetic solubility at pH 7.4. It counts as physicochemical. As to conditions: buffer.
The next data set is filed under the species Homo sapiens. The experiment in a line: Caco-2 permeability was determined. The data set is classed as ADME.
A short description of data set [13]: Kinetic solubility at pH 5. Particulars: caco-2, pH 5. The data set is classed as physicochemical.
Data set [14] is described as follows: In vitro microsome metabolism clearance in human was determined. It counts as ADME. Particulars: microsomes.
Data set [15] can be described thus: Kinetic solubility at pH 7.4, ca. Particulars: buffer. It counts as physicochemical.
Data set [16] can be described thus: In vitro microsome metabolism clearance in human was determined; High. It counts as ADME. Particulars: microsomes.
Data set [17] is described as follows: Kinetic solubility at pH 5; ca. It counts as physicochemical. As to conditions: buffer.
Data set [18] concerns Caco-2. The experiment in a line: Caco 2 permeability is determined. The data set is classed as functional, cell-based. Particulars: Homo sapiens.
Data set [19] concerns Caco-2. The experiment in a line: Caco-2 permeability as biopharmaceutical property. It counts as functional, cell-based. As to conditions: Homo sapiens.
Data set [20] can be described thus: Kinetic solubility at pH 5, ca. The data set is classed as physicochemical. Particulars: buffer.

Regarding `CCOc1ccc(S(=O)(=O)N2CCN(C)CC2)cc1-c1nc2c([nH]1)c(=O)n(C)c(=O)n2CC(C)C`, the bioavailability in [1] is 11%. The molecule further returned a logD in data set [2] of 3.15. For the same molecule, the results for the solubility (kinetic) in data set [3] and in [5] were 30 µg/mL (≈ 59.5 µM) and above 160 µg/mL, respectively. Further, in data set [4], the half-life amounted to 1.53 h. The same molecule showed a logP in [6] of 3.26. In addition, the Vd in data set [7] worked out at 9.7 L/kg.

Consider `CCOc1ccc(S(=O)(=O)N2CCN(C)CC2)cc1-c1nc2c(=O)[nH]c(=O)n(CC(C)C)c2[nH]1`, for which the IC50 was above 10000 nM at Phosphodiesterase 3, above 10000 nM against Phosphodiesterase 1 and 315 nM in data set [8].

Consider `CC(C)Cn1c(=O)n(C)c(=O)c2[nH]c(-c3ccccc3OC(C)C)nc21`, for which the IC50 on Phosphodiesterase 6 was 214 nM; in data set [8] it was 77 nM. Further, the Ratio in data set [9] was 2.8.

Turning to `CCOc1ccc(S(=O)(=O)N2CCN(C)CC2)cc1-c1nc2c(=O)n(C)c(=O)n(CC(C)CC)c2[nH]1` (centres undefined), in data set [1], the bioavailability came out at 11%. In addition, in data set [10], the half-life turned out to be 1.53 h. Also, the intrinsic metabolic clearance (microsomal CLint) is 178 µL/min/mg in data set [11] and 114 µL/min/mg in [14]. Also, the IC50 is 83 nM against Phosphodiesterase 6, 6030 nM at Phosphodiesterase 3, above 10000 nM at Phosphodiesterase 1 and 9 nM in data set [8]. Further, the kinetic solubility in [12] is 100 µg/mL (≈ 193 µM); in data set [13], above 200 µg/mL. In data set [6], this molecule yielded a logP of 3.81. This molecule came in with an apparent permeability (Papp) in the data set listed under Homo sapiens of 34.5 ×10⁻⁶ cm/s. The Vd in data set [7] is 9.7 L/kg.

`CCCOc1ccc(S(=O)(=O)N(CC)CCN(C)C)cc1-c1nc2c(=O)n(C)c(=O)n(CC(C)C)c2[nH]1`: the figures for the IC50 (against Phosphodiesterase 6; in [8]) were 242 nM and 11 nM, respectively. Besides, in data set [9], the Ratio was 22.

With `CCCOc1ccc(S(=O)(=O)N2CCC(CCO)CC2)cc1-c1nc2c([nH]1)c(=O)n(C)c(=O)n2CC(C)C`, the kinetic solubility in [15] and in data set [17] was 5 µg/mL (≈ 9.13 µM) in each case. In [1], the bioavailability turned out to be 0%. The intrinsic clearance (microsomal CLint) in [11] is 226 µL/min/mg. For the same molecule, the Cl result in [16] is given as “High”. In addition, in data set [6], the logP was found to be 3.67. In [8], the IC50 turned out to be 3 nM.

Regarding `CCCOc1ccccc1-c1nc2c(=O)n(C)c(=O)n(CC(C)C)c2[nH]1`, the concentration for half-maximal inhibition (IC50) turned out to be 87 nM against Phosphodiesterase 6 and 60 nM in data set [8]. The Ratio in [9] was determined as 1.4.

Turning to `CCCOc1ccc(S(=O)(=O)N2CCN(CCO)CC2)cc1-c1nc2c(=O)n(C)c(=O)n(CC(C)C)c2[nH]1`, the half-inhibitory concentration (IC50) against Phosphodiesterase 6 amounted to 15 nM; in data set [8] it was 3.5 nM. In addition, the Ratio in data set [9] was found to be 4.

`CCOc1ccccc1-c1nc2c(=O)n(C)c(=O)n(CC(C)C)c2[nH]1`: the results for the concentration for half-maximal inhibition (IC50) (at Phosphodiesterase 6; in data set [8]) were 227 nM and 73 nM, respectively. Moreover, the Ratio in [9] is 3.1.

Consider `CCOc1ccc(S(=O)(=O)N2CCN(C)CC2)cc1-c1nc2c(=O)n(C)c(=O)n(CC(C)C)c2[nH]1`, for which the IC50 at Phosphodiesterase 6 is 100 nM; at Phosphodiesterase 3, above 10000 nM; against Phosphodiesterase 1, 3380 nM. For the same molecule, in [9], the Ratio worked out at 4.9. In the data set with Caco-2 [18], the Papp is 25 ×10⁻⁶ cm/s.

In the case of `CCOc1ccc(S(=O)(=O)N2CCN(C)CC2)cc1-c1nc2c(=O)n(C)c(=O)n(Cc3ccc(OC)cc3)c2[nH]1`, the half-maximal inhibitory concentration (IC50) on Phosphodiesterase 6 was 1210 nM; against Phosphodiesterase 3 it was above 10000 nM; against Phosphodiesterase 1, 4520 nM; in [8], 59 nM.

Regarding `CCCOc1ccc(S(=O)(=O)N2CCC(CCO)CC2)cc1-c1nc2c(=O)n(C)c(=O)n(CC(C)C)c2[nH]1`, the half-maximal inhibitory concentration (IC50) on Phosphodiesterase 6 is 17 nM. The Ratio in [9] came out at 5.5. For the same molecule, the Papp with Caco-2 [19] is 13.2 ×10⁻⁶ cm/s.

Turning to `CCCOc1ccc(S(=O)(=O)N2CCN(C(=O)N(C)C)CC2)cc1-c1nc2c(=O)n(C)c(=O)n(CC(C)C)c2[nH]1`, the solubility (kinetic) in [15] and in data set [20] was 25 µg/mL (≈ 43.4 µM) throughout. In addition, the bioavailability in data set [1] is 0%. The same molecule showed a half-life in data set [10] of 0.367 h. In addition, the intrinsic metabolic clearance (microsomal CLint) in data set [11] was 185 µL/min/mg; in data set [14], 71 µL/min/mg. Further, the results for the 50% inhibitory concentration (IC50) (at Phosphodiesterase 6; in data set [8]) were 14 nM and 3.5 nM, respectively. Also, in [9], the Ratio was 4. The molecule further showed a Papp with Caco-2 [19] of 22.9 ×10⁻⁶ cm/s. The same molecule registered a logP in data set [6] of 4.04. Further, the Vd in [7] worked out at 3.4 L/kg.

Turning to `CCOc1ccc(S(=O)(=O)N2CCN(CCO)CC2)cc1-c1nc2c(=O)n(C)c(=O)n(CC(C)C)c2[nH]1`, the IC50 at Phosphodiesterase 6 was 68 nM. Also, in data set [9], the Ratio was determined as 3.5.

`CCOc1ccc(S(=O)(=O)N2CCN(CC)CC2)cc1-c1nc2c(=O)n(C)c(=O)n(CC(C)C)c2[nH]1` gave a 50% inhibitory concentration (IC50) at Phosphodiesterase 6 of 203 nM. The Ratio in [9] is 7.5.

Molecule `CCCOc1ccc(S(N)(=O)=O)cc1-c1nc2c(=O)n(C)c(=O)n(CC(C)C)c2[nH]1` yielded a concentration for half-maximal inhibition (IC50) at Phosphodiesterase 6 of 16 nM. Besides, in data set [9], the Ratio worked out at 3.

Take `CCOc1ccc(S(=O)(=O)N2CCN(C)CC2)cc1-c1nc2c(=O)n(C)c(=O)n(CC(C)(C)C)c2[nH]1`: the IC50 against Phosphodiesterase 6 came out at 2380 nM; against Phosphodiesterase 3, 5570 nM; in data set [8], 91 nM.

`CC(C)COc1ccccc1-c1nc2c(=O)n(C)c(=O)n(CC(C)C)c2[nH]1` yielded a half-maximal inhibitory concentration (IC50) on Phosphodiesterase 6 of 73 nM. The Ratio in data set [9] is 0.7.

Turning to `CC(C)Cn1c(=O)n(C)c(=O)c2[nH]c(-c3cc(S(=O)(=O)N4CCN(C)CC4)ccc3OC(C)C)nc21`, the half-maximal inhibitory concentration (IC50) on Phosphodiesterase 6 came out at 77 nM; in data set [8], 16 nM. Besides, the Ratio in data set [9] stood at 5.

For the molecule `C=CCCn1c(=O)n(C)c(=O)c2nc(-c3cc(S(=O)(=O)N4CCN(C)CC4)ccc3OCC)[nH]c21`, the IC50 on Phosphodiesterase 6 is 5600 nM; at Phosphodiesterase 3 it was above 10000 nM; at Phosphodiesterase 1 it was above 10000 nM; in data set [8] it was 100 nM.

As to `CCOc1ccc(S(=O)(=O)N2CCN(C)CC2)cc1-c1nc2c(=O)n(C)c(=O)n(CC3CC3)c2[nH]1`, the half-inhibitory concentration (IC50) against Phosphodiesterase 6 is 217 nM; at Phosphodiesterase 3, above 10000 nM; against Phosphodiesterase 1, above 10000 nM; in [8], 28 nM.

As for `CCCOc1ccc(S(=O)(=O)N(C)CCN(C)C)cc1-c1nc2c(=O)n(C)c(=O)n(CC(C)C)c2[nH]1`, the figures for the IC50 (against Phosphodiesterase 6; in data set [8]) were 1150 nM and 16 nM, respectively. Further, the Ratio in data set [9] amounted to 72. In the data set on Caco-2 [19], the Papp worked out at 0.3 ×10⁻⁶ cm/s. The molecule also returned a logP in [6] of 4.9.

Turning to `CCCOc1ccc(S(=O)(=O)N2CCN(C)CC2)cc1-c1nc2c(=O)n(C)c(=O)n(CC(C)C)c2[nH]1`, the half-maximal inhibitory concentration (IC50) against Phosphodiesterase 6 was 6 nM; in data set [8], 10 nM. The Ratio in data set [9] turned out to be 0.6.
